Measurements from the CheMixHub viscosity set.
Where “and” joins values, the source holds several entries; their conditions need not be identical. Identical values can stand only once.

Assay: xn = mol fraction of the nth substance listed

CC#N + CO
Details	viscosity
298.15 K, 101 kPa, x1 = 0.0892	0.478 mPa·s
298.15 K, 101 kPa, x1 = 0.1871	0.431 mPa·s
298.15 K, 101 kPa, x1 = 0.2884	0.397 mPa·s
298.15 K, 101 kPa, x1 = 0.4054	0.365 mPa·s
298.15 K, 101 kPa, x1 = 0.4849	0.351 mPa·s
298.15 K, 101 kPa, x1 = 0.5981	0.339 mPa·s
298.15 K, 101 kPa, x1 = 0.6986	0.331 mPa·s
298.15 K, 101 kPa, x1 = 0.8078	0.327 mPa·s
298.15 K, 101 kPa, x1 = 0.9013	0.329 mPa·s
298.15 K, 101 kPa, x2 = 0.1219	0.331 mPa·s
298.15 K, 101 kPa, x2 = 0.178	0.334 mPa·s
298.15 K, 101 kPa, x2 = 0.2	0.334 mPa·s
298.15 K, 101 kPa, x2 = 0.216	0.329 mPa·s and 0.333 mPa·s
298.15 K, 101 kPa, x2 = 0.3487	0.334 mPa·s
298.15 K, 101 kPa, x2 = 0.378	0.342 mPa·s
298.15 K, 101 kPa, x2 = 0.394	0.343 mPa·s
298.15 K, 101 kPa, x2 = 0.4	0.343 mPa·s
298.15 K, 101 kPa, x2 = 0.412	0.345 mPa·s
298.15 K, 101 kPa, x2 = 0.577	0.369 mPa·s
298.15 K, 101 kPa, x2 = 0.6	0.373 mPa·s
298.15 K, 101 kPa, x2 = 0.6804	0.339 mPa·s
298.15 K, 101 kPa, x2 = 0.711	0.402 mPa·s
298.15 K, 101 kPa, x2 = 0.743	0.419 mPa·s
298.15 K, 101 kPa, x2 = 0.8	0.435 mPa·s
298.15 K, 101 kPa, x2 = 0.86	0.459 mPa·s
298.15 K, 101 kPa, x2 = 0.881	0.469 mPa·s
298.15 K, 101 kPa, x2 = 0.887	0.472 mPa·s
298.15 K, 101 kPa, x2 = 0.9	0.48 mPa·s
298.15 K, 101.33 kPa, x1 = 0.0495	0.509 mPa·s
298.15 K, 101.33 kPa, x1 = 0.0999	0.479 mPa·s
298.15 K, 101.33 kPa, x1 = 0.1494	0.455 mPa·s
298.15 K, 101.33 kPa, x1 = 0.1995	0.434 mPa·s
298.15 K, 101.33 kPa, x1 = 0.245	0.418 mPa·s
298.15 K, 101.33 kPa, x1 = 0.2998	0.4 mPa·s
298.15 K, 101.33 kPa, x1 = 0.3451	0.387 mPa·s
298.15 K, 101.33 kPa, x1 = 0.3997	0.374 mPa·s
298.15 K, 101.33 kPa, x1 = 0.4489	0.364 mPa·s
298.15 K, 101.33 kPa, x1 = 0.495	0.357 mPa·s
298.15 K, 101.33 kPa, x1 = 0.5496	0.349 mPa·s
298.15 K, 101.33 kPa, x1 = 0.5999	0.343 mPa·s
298.15 K, 101.33 kPa, x1 = 0.6494	0.34 mPa·s
298.15 K, 101.33 kPa, x1 = 0.6997	0.336 mPa·s
298.15 K, 101.33 kPa, x1 = 0.745	0.334 mPa·s
298.15 K, 101.33 kPa, x1 = 0.7995	0.333 mPa·s
298.15 K, 101.33 kPa, x1 = 0.8496	0.335 mPa·s
298.15 K, 101.33 kPa, x1 = 0.8998	0.338 mPa·s
298.15 K, 101.33 kPa, x1 = 0.95	0.34 mPa·s
303 K, 100 kPa, x1 = 0.0991	0.4985 mPa·s
303 K, 100 kPa, x1 = 0.2043	0.4812 mPa·s
303 K, 100 kPa, x1 = 0.316	0.4588 mPa·s
303 K, 100 kPa, x1 = 0.4039	0.4395 mPa·s
303 K, 100 kPa, x1 = 0.5003	0.4202 mPa·s
303 K, 100 kPa, x1 = 0.6063	0.4016 mPa·s
303 K, 100 kPa, x1 = 0.7402	0.3785 mPa·s
303 K, 100 kPa, x1 = 0.8688	0.3645 mPa·s
303.15 K, 101 kPa, x1 = 0.0892	0.423 mPa·s
303.15 K, 101 kPa, x1 = 0.1871	0.385 mPa·s
303.15 K, 101 kPa, x1 = 0.2884	0.357 mPa·s
303.15 K, 101 kPa, x1 = 0.4054	0.327 mPa·s
303.15 K, 101 kPa, x1 = 0.4849	0.317 mPa·s
303.15 K, 101 kPa, x1 = 0.5981	0.308 mPa·s
303.15 K, 101 kPa, x1 = 0.6986	0.302 mPa·s
303.15 K, 101 kPa, x1 = 0.8078	0.299 mPa·s
303.15 K, 101 kPa, x1 = 0.8746	0.514 mPa·s
303.15 K, 101 kPa, x1 = 0.9013	0.304 mPa·s
308 K, 100 kPa, x1 = 0.0991	0.4521 mPa·s
308 K, 100 kPa, x1 = 0.2043	0.4145 mPa·s
308 K, 100 kPa, x1 = 0.316	0.3945 mPa·s
308 K, 100 kPa, x1 = 0.4039	0.3815 mPa·s
308 K, 100 kPa, x1 = 0.5003	0.3712 mPa·s
308 K, 100 kPa, x1 = 0.6063	0.3621 mPa·s
308 K, 100 kPa, x1 = 0.7402	0.3502 mPa·s
308 K, 100 kPa, x1 = 0.8688	0.3423 mPa·s
308.15 K, 101 kPa, x1 = 0.0892	0.376 mPa·s
308.15 K, 101 kPa, x1 = 0.1871	0.346 mPa·s
308.15 K, 101 kPa, x1 = 0.2884	0.321 mPa·s
308.15 K, 101 kPa, x1 = 0.4054	0.298 mPa·s
308.15 K, 101 kPa, x1 = 0.4849	0.291 mPa·s
308.15 K, 101 kPa, x1 = 0.5981	0.282 mPa·s
308.15 K, 101 kPa, x1 = 0.6986	0.278 mPa·s
308.15 K, 101 kPa, x1 = 0.8078	0.276 mPa·s
308.15 K, 101 kPa, x1 = 0.9013	0.28 mPa·s
308.15 K, 101.33 kPa, x1 = 0.0495	0.451 mPa·s
308.15 K, 101.33 kPa, x1 = 0.0999	0.436 mPa·s
308.15 K, 101.33 kPa, x1 = 0.1494	0.412 mPa·s
308.15 K, 101.33 kPa, x1 = 0.1995	0.395 mPa·s
308.15 K, 101.33 kPa, x1 = 0.245	0.38 mPa·s
308.15 K, 101.33 kPa, x1 = 0.2998	0.364 mPa·s
308.15 K, 101.33 kPa, x1 = 0.3451	0.352 mPa·s
308.15 K, 101.33 kPa, x1 = 0.3997	0.341 mPa·s
308.15 K, 101.33 kPa, x1 = 0.4489	0.333 mPa·s
308.15 K, 101.33 kPa, x1 = 0.495	0.326 mPa·s
308.15 K, 101.33 kPa, x1 = 0.5496	0.32 mPa·s
308.15 K, 101.33 kPa, x1 = 0.5999	0.314 mPa·s
308.15 K, 101.33 kPa, x1 = 0.6494	0.31 mPa·s
308.15 K, 101.33 kPa, x1 = 0.6997	0.307 mPa·s
308.15 K, 101.33 kPa, x1 = 0.745	0.305 mPa·s
308.15 K, 101.33 kPa, x1 = 0.7995	0.305 mPa·s
308.15 K, 101.33 kPa, x1 = 0.8496	0.306 mPa·s
308.15 K, 101.33 kPa, x1 = 0.8998	0.307 mPa·s
308.15 K, 101.33 kPa, x1 = 0.95	0.309 mPa·s
313 K, 100 kPa, x1 = 0.0991	0.4125 mPa·s
313 K, 100 kPa, x1 = 0.2043	0.3956 mPa·s
313 K, 100 kPa, x1 = 0.316	0.3838 mPa·s
313 K, 100 kPa, x1 = 0.4039	0.3736 mPa·s
313 K, 100 kPa, x1 = 0.5003	0.3612 mPa·s
313 K, 100 kPa, x1 = 0.6063	0.3512 mPa·s
313 K, 100 kPa, x1 = 0.7402	0.3375 mPa·s
313 K, 100 kPa, x1 = 0.8688	0.3215 mPa·s
318.15 K, 101.33 kPa, x1 = 0.0495	0.403 mPa·s
318.15 K, 101.33 kPa, x1 = 0.0999	0.39 mPa·s
318.15 K, 101.33 kPa, x1 = 0.1494	0.376 mPa·s
318.15 K, 101.33 kPa, x1 = 0.1995	0.361 mPa·s
318.15 K, 101.33 kPa, x1 = 0.245	0.347 mPa·s
318.15 K, 101.33 kPa, x1 = 0.2998	0.333 mPa·s
318.15 K, 101.33 kPa, x1 = 0.3451	0.323 mPa·s
318.15 K, 101.33 kPa, x1 = 0.3997	0.313 mPa·s
318.15 K, 101.33 kPa, x1 = 0.4489	0.306 mPa·s
318.15 K, 101.33 kPa, x1 = 0.495	0.3 mPa·s

CCCCCCCCO + COC(=O)OC
viscosity [mPa·s], 100 kPa
Details	293.15 K	298.15 K	303.15 K	308.15 K	313.15 K	318.15 K	323.15 K
x2 = 0.1	–	–	4.529	3.905	3.388	2.951	2.59
x2 = 0.1003	6.22	5.35	4.58	3.94	3.41	2.97	2.61
x2 = 0.1999	–	–	3.34	2.917	2.56	2.263	–
x2 = 0.2001	4.4	3.86	3.45	2.93	2.61	2.24	1.99
x2 = 0.2997	3.28	2.87	2.52	2.22	1.97	1.76	1.58
x2 = 0.3	–	–	2.516	2.22	1.971	1.763	–
x2 = 0.3999	–	–	1.931	1.73	1.547	1.395	–
x2 = 0.4005	2.44	2.14	1.9	1.69	1.5	1.35	1.22
x2 = 0.5	–	–	1.505	1.358	1.229	1.119	–
x2 = 0.5004	1.83	1.63	1.46	1.31	1.18	1.08	0.98
x2 = 0.5996	1.39	1.25	1.13	1.03	0.94	0.86	0.8
x2 = 0.6	–	–	1.183	1.079	0.984	0.903	–
x2 = 0.7	–	–	0.959	0.88	0.814	0.754	–
x2 = 0.7001	1.08	0.98	0.9	0.83	0.77	0.71	0.66
x2 = 0.7999	–	–	0.765	0.711	0.662	0.617	–
x2 = 0.8001	0.85	0.78	0.72	0.67	0.62	0.58	0.54
x2 = 0.9	–	–	0.633	0.591	0.554	0.523	–
x2 = 0.9005	0.66	0.61	0.58	0.54	0.51	0.48	0.45
